Source: patent US5086045A, “Antitumor antibiotic” (Bristol-Myers Squibb Company, priority 1990, dated 1992)
“Also recorded” adds a separate entry of the source.

Legend:
P388 leukemia [1] = assay: In vivo antitumor activity, P388 leukemia implanted ip, drug ip; set-up: species or system mouse
Experimental: (§1) The in vivo antitumor activity of BMY-41339 was determined in the standard P388 mouse leukemia model. A summary of the experiments performed using BMY-41339 is provided below.
(§2) DBA/2 and (Balb/c × DBA/2)F1 (CDF1) hybrid mice were purchased from Charles River Breeding Co. (Wilmington, MA). They were provided food and water ad libitum.
(§3) The P388 murine ascites leukemia was maintained by weekly in vivo passage in DBA/2 mice.
(§4) Esperamicin A1 and BMY-41339 were dissolved in ethanol. Further dilutions were made with 0.9% NaCl (saline) until the ethanol concentration (v/v) was 10%. All administrations were made, therefore, in a 10% ethanol in saline vehicle. For ip injections, the concentration of compound was adjusted according to the average initial body weight of each group of mice to be injected such that the desired dose would be contained in a 0.5 ml injection volume. The same procedure was used for iv compound administration except the injection volume was 0.2 ml.
(§5) Antitumor experiments were initiated by implanting […] P388 leukemia cells either ip or iv into CDF1 mice. BMY-41339 and esperamicin A1 (included as a positive reference compound), were injected either ip in mice implanted ip with P388, or iv in mice implanted iv with P388 on Day 2 post-implant only Eight different dose levels of BMY-41339, at two-fold increments, were evaluated in each of the two experiments performed.
(§6) A % T/C value of ≥ 125 was considered indicative of activity in these models.

P388 leukemia [2] = assay: In vivo antitumor activity, P388 leukemia implanted iv, drug iv; set-up: species or system mouse;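 on % T/C: median survival time of treated over control mice times 100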;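 on T/C: median survival time of treated over control mice times 100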
Experimental: as §1, §2, §3, §4, §5, §6

a variety of bacteria = assay: Antimicrobial activity, serial two-fold agar dilution, overall; format: cell-based
Experimental: Antimicrobial activity of BMY-41339 was determined for a variety of bacteria by the serial two-fold agar dilution method.

[3] = Exp. 8102, iv, 0.025 mg/kg/dose
[4] = Exp. 8102, iv, same doses up to 3.2 μg/kg
[5] = Exp. 8109, iv, 0.025 mg/kg/dose

With `C=C(OC)C(=O)Nc1cc(OC)c(OC)cc1C(=O)OC1CC(OC2C(=O)C(NC(=O)OC)=C3C(=CCSSSSC)C2(O)C#CC=CC#CC3OC2OC(C)C(NOC3CC(O)C(SC)C(C)O3)C(O)C2OC2CC(OC)C(NC(C)C)CO2)OC(C)C1O` (stereo not drawn) [BMY-41339] the “% T/C” value (P388 leukemia [1]; Exp. 8109, ip, 1.6 mg/kg/dose) was 145%, the “Avg. wt. change on day 6” value (P388 leukemia [1]; Exp. 8109, ip, 1.6 mg/kg/dose) was -0.1 grams and the “Survivors on Day 5” value (P388 leukemia [1]; Exp. 8109, ip, 1.6 mg/kg/dose) was 6/6. For the same compound, the “% T/C” value (P388 leukemia [1]; Exp. 8109, ip, 3.2 mg/kg/dose) was 140%, the “Avg. wt. change on day 6” value (P388 leukemia [1]; Exp. 8109, ip, 3.2 mg/kg/dose) was 0.7 grams and the “Survivors on Day 5” value (P388 leukemia [1]; Exp. 8109, ip, 3.2 mg/kg/dose) was 6/6. The increases in lifespan (P388 leukemia [1]; Exp. 8109, ip, 0.5 -32 μg/kg) was “active increases”, the “activity against P388 leukemia” value (P388 leukemia [1]; conclusion, confirmed experimental results) was “active against P388 leukemia” and the “% T/C” value (P388 leukemia [2]; [3]) was 100%. The “Avg. wt. change on day 6” value (P388 leukemia [2]; [3]) was 0.4 grams, the “Survivors on Day 5” value (P388 leukemia [2]; [3]) was 6/6 and the “% T/C” value (P388 leukemia [2]; Exp. 8102, iv, 0.05 mg/kg/dose) was 100%. For the same compound, the “Avg. wt. change on day 6” value (P388 leukemia [2]; Exp. 8102, iv, 0.05 mg/kg/dose) was 0.1 grams, the “Survivors on Day 5” value (P388 leukemia [2]; Exp. 8102, iv, 0.05 mg/kg/dose) was 6/6 and the “% T/C” value (P388 leukemia [2]; Exp. 8102, iv, 0.1 mg/kg/dose) was 106%. For the same compound, the “Avg. wt. change on day 6” value (P388 leukemia [2]; Exp. 8102, iv, 0.1 mg/kg/dose) was 0.4 grams, the “Survivors on Day 5” value (P388 leukemia [2]; Exp. 8102, iv, 0.1 mg/kg/dose) was 6/6 and the “% T/C” value (P388 leukemia [2]; Exp. 8102, iv, 0.2 mg/kg/dose) was 100%. The “Avg. wt. change on day 6” value (P388 leukemia [2]; Exp. 8102, iv, 0.2 mg/kg/dose) was -0.3 grams, the “Survivors on Day 5” value (P388 leukemia [2]; Exp. 8102, iv, 0.2 mg/kg/dose) was 6/6 and the “% T/C” value (P388 leukemia [2]; Exp. 8102, iv, 0.4 mg/kg/dose) was 100%. For the same compound, the “Avg. wt. change on day 6” value (P388 leukemia [2]; Exp. 8102, iv, 0.4 mg/kg/dose) was -0.4 grams, the “Survivors on Day 5” value (P388 leukemia [2]; Exp. 8102, iv, 0.4 mg/kg/dose) was 6/6 and the “% T/C” value (P388 leukemia [2]; Exp. 8102, iv, 0.8 mg/kg/dose) was 100%. For the same compound, the “Avg. wt. change on day 6” value (P388 leukemia [2]; Exp. 8102, iv, 0.8 mg/kg/dose) was -0.3 grams, the “Survivors on Day 5” value (P388 leukemia [2]; Exp. 8102, iv, 0.8 mg/kg/dose) was 6/6 and the “% T/C” value (P388 leukemia [2]; Exp. 8102, iv, 1.6 mg/kg/dose) was 100%. For the same compound, the “Avg. wt. change on day 6” value (P388 leukemia [2]; Exp. 8102, iv, 1.6 mg/kg/dose) was -0.1 grams, the “Survivors on Day 5” value (P388 leukemia [2]; Exp. 8102, iv, 1.6 mg/kg/dose) was 6/6 and the “% T/C” value (P388 leukemia [2]; Exp. 8102, iv, 3.2 mg/kg/dose) was 113%. The “Avg. wt. change on day 6” value (P388 leukemia [2]; Exp. 8102, iv, 3.2 mg/kg/dose) was -0.2 grams, the “Survivors on Day 5” value (P388 leukemia [2]; Exp. 8102, iv, 3.2 mg/kg/dose) was 6/6 and the “effectiveness versus iv-implanted leukemia” value (P388 leukemia [2]; [4]) was “not effective”. The “maximum tolerated dose reached” value (P388 leukemia [2]; [4]) was “no indication of having reached a maximum tolerated dose”, the T/C (P388 leukemia [2]; Exp. 8109, iv, 16 μg/kg) was 139% and the “% T/C” value (P388 leukemia [2]; [5]) was 100%. The “Avg. wt. change on day 6” value (P388 leukemia [2]; [5]) was 0.4 grams, the “Survivors on Day 5” value (P388 leukemia [2]; [5]) was 6/6 and the T/C (P388 leukemia [2]; Exp. 8109, iv, 32 μg/kg) was 156%. For the same compound, the “% T/C” value (P388 leukemia [2]; Exp. 8109, iv, 0.05 mg/kg/dose) was 100%, the “Avg. wt. change on day 6” value (P388 leukemia [2]; Exp. 8109, iv, 0.05 mg/kg/dose) was 0.1 grams and the “Survivors on Day 5” value (P388 leukemia [2]; Exp. 8109, iv, 0.05 mg/kg/dose) was 6/6. The “% T/C” value (P388 leukemia [2]; Exp. 8109, iv, 0.1 mg/kg/dose) was 106%, the “Avg. wt. change on day 6” value (P388 leukemia [2]; Exp. 8109, iv, 0.1 mg/kg/dose) was 0.4 grams and the “Survivors on Day 5” value (P388 leukemia [2]; Exp. 8109, iv, 0.1 mg/kg/dose) was 6/6. The “% T/C” value (P388 leukemia [2]; Exp. 8109, iv, 0.2 mg/kg/dose) was 100%, the “Avg. wt. change on day 6” value (P388 leukemia [2]; Exp. 8109, iv, 0.2 mg/kg/dose) was -0.3 grams and the “Survivors on Day 5” value (P388 leukemia [2]; Exp. 8109, iv, 0.2 mg/kg/dose) was 6/6. For the same compound, the “% T/C” value (P388 leukemia [2]; Exp. 8109, iv, 0.4 mg/kg/dose) was 100%, the “Avg. wt. change on day 6” value (P388 leukemia [2]; Exp. 8109, iv, 0.4 mg/kg/dose) was -0.4 grams and the “Survivors on Day 5” value (P388 leukemia [2]; Exp. 8109, iv, 0.4 mg/kg/dose) was 6/6. The “% T/C” value (P388 leukemia [2]; Exp. 8109, iv, 0.8 mg/kg/dose) was 100%, the “Avg. wt. change on day 6” value (P388 leukemia [2]; Exp. 8109, iv, 0.8 mg/kg/dose) was -0.3 grams and the “Survivors on Day 5” value (P388 leukemia [2]; Exp. 8109, iv, 0.8 mg/kg/dose) was 6/6. The “% T/C” value (P388 leukemia [2]; Exp. 8109, iv, 1.6 mg/kg/dose) was 100%, the “Avg. wt. change on day 6” value (P388 leukemia [2]; Exp. 8109, iv, 1.6 mg/kg/dose) was -0.1 grams and the “Survivors on Day 5” value (P388 leukemia [2]; Exp. 8109, iv, 1.6 mg/kg/dose) was 6/6. The “% T/C” value (P388 leukemia [2]; Exp. 8109, iv, 3.2 mg/kg/dose) was 113%, the “Avg. wt. change on day 6” value (P388 leukemia [2]; Exp. 8109, iv, 3.2 mg/kg/dose) was -0.2 grams and the “Survivors on Day 5” value (P388 leukemia [2]; Exp. 8109, iv, 3.2 mg/kg/dose) was 6/6. The increases in lifespan (P388 leukemia [2]; Exp. 8109, iv, at two dose levels evaluated) was “active increases”, the “activity against disseminated iv implanted P388 leukemia” value (P388 leukemia [2]; conclusion, when adequate dosage was administered) was “active against the disseminated iv implanted P388 leukemia model” and the antibacterial activity spectrum (a variety of bacteria) was “broad spectrum of antibacterial activity; also recorded: antimicrobial activity against a broad spectrum of bacteria”.
